# System: ATPase activity endogenous to L929 cell lysate
# Test: Detergent inhibition of ATPase endogenous to L929 cell lysate (ATP remaining by luciferase luminescence, 22° C.)
# Assay type: biochemical
# Parameters: key to Relative ATPase Activity, slope det/slope lysate: slope with detergent / slope without; ≥1.0 = 100% activity, 0.5 = 50%
# Method: Three separate detergents in each of four detergent classes were tested: anionic [SDS (Sodium dodecyl sulfate), Bioterge (an α olefin sulfate), and sodium deoxycholate], nonionic [TRITON X-100, BigCHAP (N,N-bis(3-D-Gluconamidopropyl)cholamide) and THESIT (polyethylene glycol 400 dodecyl ether, Fluka, #88315)], cationic [BDDABr (Benzyldimethyldodecylammonium bromide), CTAB (Cetyltrimethylammonium bromide), and DTAB (dodecyltrimethylammonium bromide)] and zwitterionic [CHAPS (3[(3-Cholamidopropyl)dimethylammonio]propanesulfonic acid), CHAPSO (3-([3-Cholamidopropyl]dimethylammonio)-2-hydroxy-1-propanesulfonate), and Sulfobetaine 3-10 ([…]-N,N-dimethyl-3-ammonio-1-propanesulfonate)]. Detergents were obtained from Sigma, Fluka and Aldrich.
# L929 cells (ATCC CCL-1; 1.5×10^5 cells/ml) in F12/DMEM (Hyclone, SH30023) containing 10% horse serum (Hyclone, SH30074) were frozen and thawed for four cycles to create a cell lysate. Then 50 μl of stock detergent solutions [10%, 5.0%, 1.0%, and 0.5% (w/v)] were separately added to 450 μl cell lysate, creating a final detergent concentration in the cell lysate sample of 1.0%, 0.5%, 0.1%, and 0.05%, respectively (these percentage values are those used in Tables D and E herein below). Control samples contained either lysate only or 1.0 μM ATP in 15 mM HEPES buffer (pH 7.5). All samples were incubated at 22° C. (room temperature) for the duration of the experiment.
# At various timepoints, 20 μl from each sample/detergent mixture was added to a 96-well luminometer plate in triplicate, and then 100 μl of a solution (“luciferase-luciferin” or “L/L reagent”) containing 25 mM HEPES buffer (pH 7.5), 40 μg luciferase enzyme LucPpe2m146 (Promega, E140), 100 μM luciferin (Promega), and 10 mM MgSO4 was added to each well. The L/L reagent was stored at 4° C. for the duration of the experiment and then allowed to reach ambient temperature just before assaying. After mixing the contents of the plate, light output was measured with a Dynex MLX microtiter plate luminometer (Chantilly, Va.), 0.5 second reads per well with the first measurement taken five minutes after the detergent solution was combined with the sample. The average relative light units and the timepoint at which it was measured (rlu; Table D) and percent of remaining luciferase activity at the timepoint (Table E) are reported; controls were run with each set of experimental conditions as indicated. The cationic and anionic detergents were assayed on one day with one set of controls. The zwitterionic and nonionic detergents were assayed on a separate day with a separate set of controls. The DTAB at 0.5% was assayed on both days (1 and 2).
# The experiment was performed as detailed in Example 1. The average relative light unit values and the percent of ATP remaining values are listed below in Table F and G respectively.
# The log of the percent of ATP remaining after original timepoint values from Table E and Table G were plotted on the y axis against time (in minutes) on the x axis. The slope of the line generated by these values in the presence of detergent was divided by the slope of the line generated by the values in the absence of detergent (lysate control) resulting in the Relative ATPase Activity values listed below in Table H.
# A relative activity value of 1.0 or greater indicates 100% cellular ATPase activity at the concentration of detergent tested. A relative activity value of 0.5 indicates a two-fold (or 50%) decrease in the level of cellular ATPase activity at the concentration of detergent tested when compared to the ATPase activity level in the absence of the detergent. A relative activity value of 0.2 indicates a five-fold (or 80%) decrease in the level of cellular ATPase activity at the concentration of detergent tested when compared to the ATPase activity level in the absence of the detergent.
substance,measurement,setting,value
TRITON X-100,Average Relative Light Unit Values,"0.05% detergent, 5 min",6160.71 rlu
same,Percent ATP Remaining,"0.05% detergent, 5 min",100%
same,Average Relative Light Unit Values,"0.05% detergent, 75 min",1964.17 rlu
same,Percent ATP Remaining,"0.05% detergent, 75 min",31.9%
same,Average Relative Light Unit Values,"0.05% detergent, 169 min",822.48 rlu
same,Percent ATP Remaining,"0.05% detergent, 169 min",13.4%
same,Average Relative Light Unit Values,"0.05% detergent, 222 min",303.73 rlu
same,Percent ATP Remaining,"0.05% detergent, 222 min",4.9%
same,Average Relative Light Unit Values,"0.05% detergent, 260 min",147.48 rlu
same,Percent ATP Remaining,"0.05% detergent, 260 min",2.4%
same,"Relative ATPase Activity, slope det/slope lysate",0.05 percent detergent,1.228
same,Slope (log percent ATP remaining vs time in minutes),0.05 percent detergent,−0.0065
same,Average Relative Light Unit Values,"0.1% detergent, 5 min",6837.20 rlu
same,Percent ATP Remaining,"0.1% detergent, 5 min",100%
same,Average Relative Light Unit Values,"0.1% detergent, 75 min",3004.57 rlu
same,Percent ATP Remaining,"0.1% detergent, 75 min",43.9%
same,Average Relative Light Unit Values,"0.1% detergent, 169 min",1643.05 rlu
same,Percent ATP Remaining,"0.1% detergent, 169 min",24.0%
same,Average Relative Light Unit Values,"0.1% detergent, 222 min",801.38 rlu
same,Percent ATP Remaining,"0.1% detergent, 222 min",11.7%
same,Average Relative Light Unit Values,"0.1% detergent, 260 min",448.93 rlu
same,Percent ATP Remaining,"0.1% detergent, 260 min",6.6%
same,"Relative ATPase Activity, slope det/slope lysate",0.10 percent detergent,0.889
same,Slope (log percent ATP remaining vs time in minutes),0.10 percent detergent,−0.0047
same,Average Relative Light Unit Values,"0.5% detergent, 5 min",6106.61 rlu
same,Percent ATP Remaining,"0.5% detergent, 5 min",100%
same,Average Relative Light Unit Values,"0.5% detergent, 75 min",1880.98 rlu
same,Percent ATP Remaining,"0.5% detergent, 75 min",30.8%
same,Average Relative Light Unit Values,"0.5% detergent, 169 min",871.01 rlu
same,Percent ATP Remaining,"0.5% detergent, 169 min",14.3%
same,Average Relative Light Unit Values,"0.5% detergent, 222 min",378.58 rlu
same,Percent ATP Remaining,"0.5% detergent, 222 min",6.2%
same,Average Relative Light Unit Values,"0.5% detergent, 260 min",195.42 rlu
same,Percent ATP Remaining,"0.5% detergent, 260 min",3.2%
same,"Relative ATPase Activity, slope det/slope lysate",0.50 percent detergent,1.117
same,Slope (log percent ATP remaining vs time in minutes),0.50 percent detergent,−0.0059
same,Average Relative Light Unit Values,"1.0% detergent, 5 min",6073.78 rlu
same,Percent ATP Remaining,"1.0% detergent, 5 min",100%
same,Average Relative Light Unit Values,"1.0% detergent, 75 min",1774.10 rlu
same,Percent ATP Remaining,"1.0% detergent, 75 min",29.2%
same,Average Relative Light Unit Values,"1.0% detergent, 169 min",839.14 rlu
same,Percent ATP Remaining,"1.0% detergent, 169 min",13.8%
same,Average Relative Light Unit Values,"1.0% detergent, 222 min",331.95 rlu
same,Percent ATP Remaining,"1.0% detergent, 222 min",5.5%
same,Average Relative Light Unit Values,"1.0% detergent, 260 min",174.89 rlu
same,Percent ATP Remaining,"1.0% detergent, 260 min",2.9%
same,"Relative ATPase Activity, slope det/slope lysate",1.00 percent detergent,1.152
same,Slope (log percent ATP remaining vs time in minutes),1.00 percent detergent,−0.0061

# From patent publication US20030104507A1, “Method for detection of ATP” (priority 2001, published 2003)
